Source: patent US11985974B2, “Antimicrobial ferulic acid derivatives and uses thereof” (WISCONSIN ALUMNI RESEARCH FOUNDATION, priority 2014, dated 2024)
In brackets after ≈: the same amount, converted by molar mass. Entries after “also recorded” stand apart in the source; their conditions may differ.

Assays:
β-1,3-glucan synthase = system: T1, β-1,3-glucan synthase; experiment: β-1,3-glucan synthase activity in the membrane fraction; type: biochemical, S. cerevisiae BY4741; conditions: 25° C., 30 min
T1 construct: membrane fraction was prepared from S. cerevisiae BY4741
Method: After the membrane fraction was prepared from S. cerevisiae BY4741 as described previously (n=3) (Abe et al. 2001), β-1,3-glucan synthase activity was measured as described previously (n=3) (Inoue et al. 1995) with slight modification. Briefly, 20 μL membrane fraction (˜70 μg total protein) was added to a reaction mixture (final volume of 100 μL) containing 50 mM Tris·HCl, pH 7.5, 10 mM potassium fluoride, 1 mM EDTA, 0.2 mM UDP-Glc (with 89 Bq UDP-[Glucose-14C]; NEC403; PerkinElmer), and different concentrations of poacic acid (1.25, 2.5, 5, 10, 20, 40, 80, 160, or 320 μg/mL). The reaction mixture was incubated at 25° C. for 30 min and stopped by the addition of ethanol. To trap reaction product (β-1,3-glucan polymer), the reaction mixture was filtered through the membrane filter (mixed cellulose esters; 0.2 μm in pore size; ADVANTEC), washed one time with 2 mL distilled water, and dried at room temperature. After addition of scintillation mixture (Econofluor-2; PerkinElmer), radioactivity was measured by a scintillation counter (LSC-6100; Aloka) Inhibition curves and IC50 values were determined using R software (ver. 3.0.1) by sigmoidal curve fitting with the glm function.

yeast cells (his3Δ) = experiment: Mannoprotein and glucan staining (aniline blue, Con A); type: cell-based, Saccharomyces cerevisiae; conditions: 125 μg/mL, 6 h
Method: β-1,3-Glucan was stained with aniline blue (016-21302; Wako Chemicals) as described previously (Watanabe et al. 2001) with slight modification. Briefly, log-phase yeast cells (his3Δ) were cultured in YPD with poacic acid (125 μg/mL) at 25° C. Then, cells were collected at 0, 2, 4, and 6 h after treatment and stained with aniline blue without fixation as described previously (Okada et al. 2015). Cells mounted on a glass slide were exposed to UV for 30 s to bleach out poacic acid fluorescence before acquiring images. Staining of chitin or mannoproteins with calcofluor white (F3543; Sigma-Aldrich) or Alexa594-ConA (C11253; Life Technologies), respectively, was performed as described previously (Okada et al. 2015). For cell-free glucan staining, yeast glucan (G0331; Tokyo Chemical Industry) was suspended to 0.125% (wt/vol) poacic acid and observed under a fluorescent microscope using a regular DAPI filter set (Carl Zeiss).

bck1Δ mutant = experiment: Sensitivity of individual bck1Δ mutant; type: cell-based, Saccharomyces cerevisiae; conditions: bck1Δ mutant vs control strain
Method: The diferulate compounds tested were synthesized as described by Lu et al. (2012) and resuspended in DMSO. Caspofungin, nikkomycin Z, and MMS were purchased from Sigma-Aldrich. Echinocandin B was a gift from O. Kondo (Chugai Pharmaceuticals, Tokyo, Japan). Micafungin was provided by Astellas Pharma. Diferulates were initially screened at a concentration of 1 mg/mL to determine bioactivity. Cells of Saccharomyces cerevisiae (MATα pdr1Δ::natMX pdr3Δ::KLURA3 snq2Δ::KI.LEU2 can1Δ::STE2pr-Sp_his5 lyp1Δ his3Δ1 leu2Δ0 ura3Δ0 met15Δ0), referred to as the control strain, were grown in 200-μL cultures at 30° C. in YPD with a drug or DMSO control. Plates were read on a TECAN M1000 over a 48-h growth period. The specific growth rate was calculated using GCAT analysis software (https://gcat3-pub.glbrc.org/) (Sato et al. 2014). When presented, IC50 values for growth rate inhibition were calculated from triplicate eight-point dose curves and SigmaPlot 12.0. When presented, error bars are means±SEs of at least three replicates.

[1] = system: yeast deletion collection; experiment: Chemical genomic analysis of yeast deletion collection; type: cell-based, Saccharomyces cerevisiae
Method: Chemical genomic analysis of poacic acid was performed as described previously (Parsons et al. 2006, Fung et al. 2014). The tested yeast deletion collection had ˜4,000 strains using the genetic background described by Andrusiak (Andrusiak 2012). The optimal inhibitory concentration of poacic acid for chemical genomic profiling [70-80% growth vs. solvent control in yeast extract-peptone-galactose medium after 24 h of growth] was determined using an eight-point dose curve. A concentration of 88 μg/mL inhibited growth within this range; 200-μL cultures of the pooled deletion collection of S. cerevisiae were grown with 88 μg/mL poacic acid (n=3) or a DMSO control in triplicate for 48 h at 30° C. Genomic DNA was extracted using the Epicentre MasterPure Yeast DNA Purification Kit. Mutant-specific molecular barcodes were amplified with specially designed multiplex primers (Smith et al. 2009). The barcodes were sequenced using an Illumina MiSeq. Replicates of each condition, poacic acid (n=3) or DMSO (n=2), were sequenced. The barcode counts for each yeast deletion mutant in the presence of poacic acid were compared to the DMSO control conditions to determine sensitivity or resistance of individual strains (the chemical genetic interaction score) (Parsons et al. 2006). To determine a P value for each top sensitive and resistant mutant, we used the EdgeR package (Robinson et al. 2014, Robinson et al. 2010). A Bonferroni-corrected hypergeometric distribution test was used to search for significant enrichment of GO terms among the top 10 sensitive and resistant deletion mutants (Boyle et al. 2004). To understand the pathways that were most affected by poacic acid, we developed a protein complex/pathway score based on the summation of the z scores for each complex/pathway (Pathway z score). Correlation of the chemical genomic profile of poacic acid with the yeast genetic interaction network was performed as previously described (Costanzo et al. 2010).
For each complex, the chemical genetic interaction score of the genes in the complex with the compound was summed. To determine significance, the expectations for such a sum for random sets of genes of equal size were calculated. The random sets of equal size were expected to have means equal to the background mean and SDs equal to the background SD/sqrt(n). With this information, a z score (number of SDs from the expected mean) for each complex or pathway can be computed: Pathway z-score=(Σ−μ)/(σ×sqrt(n)), where Σ=sum of the chemical genetic interaction scores of genes in the complex, μ=mean of the chemical genetic interaction scores of the compounds with all genes studies, σ=SD of chemical genetic interaction scores of the compounds with all genes in the study, and n=size of the complex. Multivariate Morphological Analysis

## COc1cc(/C=C/c2cc(/C=C/C(=O)O)cc(OC)c2O)ccc1O [poacic acid, (E)-4-Hydroxy-3-{2-[(E)-4-hydroxy-3-methoxystyryl]}-5-methoxycinnamic acid]
β-1,3-glucan synthase
  IC50 (β-1,3-glucan synthase activity in vitro): 31 µg/mL (≈ 90.6 µM)
Yeast cells (his3Δ)
  glucan staining with aniline blue in buds: significantly decreased glucan staining in buds
  mannoprotein staining with Con A: does not change mannoprotein staining
bck1Δ mutant
  reduction in the IC50 compared with the control strain (WT): six-fold reduction; also recorded: six-fold more sensitive
[1]; 88 μg/mL, yeast extract-peptone-galactose medium, 24 h
  growth vs. solvent control: 70-80%
[1]; ACK1 deletion mutant, sensitive
  Z Score: ACK1 −9.09 1.39E
[1]; ALG6 deletion mutant, sensitive
  Z Score: ALG6 −8.30 1.82E
[1]; BCK1 deletion mutant, sensitive
  Z Score: BCK1 −12.91 2.58E
[1]; CSG2 deletion mutant, resistant
  Z Score: CSG2 5.89 1.57E
[1]; CWH43 deletion mutant, sensitive
  Z Score: CWH43 −10.99 7.98E
[1]; DFG5 deletion mutant, resistant
  Z Score: DFG5 5.51 1.34E
[1]; DSF2 deletion mutant, resistant
  Z Score: DSF2 5.32 6.68E
[1]; EMC4 deletion mutant, sensitive
  Z Score: EMC4 −7.92 1.90E
[1]; ERG2 deletion mutant, sensitive
  Z Score: ERG2 −7.80 4.76E
[1]; FYV8 deletion mutant, sensitive
  Z Score: FYV8 −9.11 1.11E
[1]; LCL1 deletion mutant, resistant
  Z Score: LCL1 5.79 4.51E
[1]; NBP2 deletion mutant, resistant
  Z Score: NBP2 5.43 1.57E
[1]; NUP170 deletion mutant, resistant
  Z Score: NUP170 5.33 2.79E
[1]; PIB2 deletion mutant, resistant
  Z Score: PIB2 4.96 2.79E
[1]; PKC pathway (most sensitive pathway), 88 μg/mL
  Pathway z score: −7.85
[1]; RGD1 deletion mutant, sensitive
  Z Score: RGD1 −10.16 1.21E
[1]; ROM2 deletion mutant, sensitive
  Z Score: ROM2 −9.47 8.88E
[1]; RPL21B deletion mutant, resistant
  Z Score: RPL21B 4.81 1.11E
[1]; RTS1 deletion mutant, resistant
  Z Score: RTS1 5.39 6.26E
[1]; SNG1 deletion mutant, sensitive
  Z Score: SNG1 −7.91 8.96E
[1]; SUR1 deletion mutant, resistant
  Z Score: SUR1 5.21 5.34E
